The target in this assay is T1, MR (Homo sapiens, UniProt P08235).
T1 construct: expressed in transfected cells; host or cells: Huh7 human liver cells, transient transfection
T1 sequence (P08235 726-964 limits assumed): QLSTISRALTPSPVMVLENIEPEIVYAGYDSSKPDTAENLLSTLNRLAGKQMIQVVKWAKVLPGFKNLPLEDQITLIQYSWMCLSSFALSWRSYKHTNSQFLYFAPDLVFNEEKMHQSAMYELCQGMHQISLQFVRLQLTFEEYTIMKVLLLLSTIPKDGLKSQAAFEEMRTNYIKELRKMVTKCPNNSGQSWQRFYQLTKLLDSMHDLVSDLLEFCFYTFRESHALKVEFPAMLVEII
Nature of the assay: Cell-Based Reporter Assay (Gal4 DBD-MR LBD luciferase reporter, antagonist mode).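 Further: cells co-transfected with a Gal4 response element luciferase plasmid, compound exposure overnight before lysis and luminescence counting, IC50 reflects reduced aldosterone-stimulated reporter signal.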 Particulars: antagonist mode vs aldosterone at EC80; transfected human liver cells (Huh7); luciferase readout; Examples 3, 6, 12 and 13 tested in analogous format with minor variations. (In general: Reporter assays use an easily measured gene product as a stand-in for the process of interest.)
On to `COc1cc(C2=NN(c3ccc(C#N)c(C)n3)[C@@H](C3CCCC3)C2)ccc1CC(=O)O` [Example 54, (R)-2-(4-(1-(5-cyano-6-methylpyridin-2-yl)-5-cyclopentyl-4,5-dihydro-1H-pyrazol-3-yl)-2-methoxyphenyl)acetic acid], for which the half-inhibitory concentration (IC50) worked out at 95.7 nM.

In turn, `CCOc1nc(C2=NN(c3ccc(C#N)c(C)c3)[C@@H](C3CCCC3)C2)ccc1C(N)=O` [Example 55, (R)-6-(1-(4-cyano-3-methylphenyl)-5-cyclopentyl-4,5-dihydro-1H-pyrazol-3-yl)-2-ethoxynicotinamide] returned a half-maximal inhibitory concentration (IC50) of 3.9 nM.

`Cc1cc(C2=NN(c3ccc(C#N)c(C)n3)[C@@H](C3CCCC3)C2)cc(C)c1O` [Example 57, (R)-6-(5-cyclopentyl-3-(4-hydroxy-3,5-dimethylphenyl)-4,5-dihydro-1H-pyrazol-1-yl)-2-methylnicotinonitrile] showed an IC50 of 503 nM.

The molecule `Cc1nc(N2N=C(c3cc(F)c(O)c(F)c3)C[C@@H]2C2CCCC2)ccc1C#N` [Example 61, (R)-6-(5-cyclopentyl-3-(3,5-difluoro-4-hydroxyphenyl)-4,5-dihydropyrazol-1-yl)-2-methylnicotinonitrile] returned a 50% inhibitory concentration (IC50) of 208 nM.

`Cc1nc(N2N=C(c3ccc(O)c(F)c3)C[C@@H]2C2CCCC2)ccc1C#N` [Example 62, (R)-6-(5-cyclopentyl-3-(3-fluoro-4-hydroxyphenyl)-4,5-dihydropyrazol-1-yl)-2-methylnicotinonitrile]: the IC50 came out at 92.3 nM.

Regarding `Cc1nc(N2N=C(c3ccc4c(c3)C(C)(C)OC(=O)N4)C[C@@H]2C2CCCC2)ccc1C#N` [Example 64, (R)-6-(5-cyclopentyl-3-(4,4-dimethyl-2-oxo-2,4-dihydro-1H-benzo[d][1,3]oxazin-6-yl)-4,5-dihydro-1H-pyrazol-1-yl)-2-methylnicotinonitrile], the IC50 turned out to be 10 nM.

The molecule `CC(=O)Nc1cccc(C2=NN(c3ccc(C#N)c(C)n3)[C@@H](C3CCCC3)C2)n1` [Example 66, (R)—N-(6-(1-(5-cyano-6-methylpyridin-2-yl)-5-cyclopentyl-4,5-dihydro-1H-pyrazol-3-yl)pyridin-2-yl)acetamide] gave an IC50 of 255 nM.

Regarding `Cc1nc(N2N=C(c3cccc(OC(C)C)n3)C[C@@H]2C2CCCC2)ccc1C#N` [Example 67, (R)-6-(5-cyclopentyl-3-(6-isopropoxypyridin-2-yl)-4,5-dihydro-1H-pyrazol-1-yl)-2-methylnicotinonitrile], the IC50 is 170 nM.

In turn, `COc1nc(C2=NN(c3ccc(C#N)c(C)c3)C(C3CC(F)(F)C3)C2)ccc1C(=O)O` (stereo not drawn) [Example 70, 6-(1-(4-cyano-3-methylphenyl)-5-(3,3-difluorocyclobutyl)-4,5-dihydro-1H-pyrazol-3-yl)-2-methoxynicotinic acid] gave an IC50 of 147 nM.

As a reminder, the IC50 is the concentration at which inhibition is half-maximal. Higher therefore signals lower potency.

These data come from US20120022058A1, “4,5-DIHYDRO-1H-PYRAZOLE COMPOUNDS AND THEIR PHARMACEUTICAL USES” (Pfizer Inc., priority 2009, published 2012).
